Data set [1] concerns Male NIH Swiss mice. As to the kind of experiment: Forced swim test (FST). It is filed as in vivo. More on the design: key to Dunett's Test (0.05) * against vehicle, # against Imipramine: * against vehicle; # against Imipramine. Particulars: for Seconds of immobility: last 4 min of 6 min swim, n = 8; for Dunett's Test (0.05) * against vehicle, # against Imipramine: immobility time; for minimum effective dose (MED) in forced swim test: Dunett's Test (0.05) statistically significant. An excerpt: The forced swim test is a well established animal model for depression, anxiety and avolition (lack of motivation)(Porsolt, et al. Nature (1977) 266, 730) (J. M. Witkin et al., Trends Pharmacol Sci. 2005 26:609-17). It can also be used as a model for the treatment of negative symptoms of schizophrenia.
Male NIH Swiss mice (Harlan Sprague-Dawley) are housed 12 mice/cage for 7-10 days prior to testing. On the day of testing, mice weighing 25-30 g, are brought to the testing room at least 1 hr. prior to dosing. Mice are dosed (p.o.) at 6-8 min. intervals with either vehicle (1% CMC/0.5% SLS/0.08% povidone/0.05 antifoam for CB1 inverse agonists) or test compound and put it into a clean cage (4 mice/cage).
To test, mice are placed individually in clear plastic cylinders (about 10 cm diameter×25 cm height) filled to 6 cm with water at 22-25° C. for six min. The duration of immobility during the last 4 min. is recorded. A mouse is regarded as immobile when floating motionless or making only those movements necessary to keep its head above the water.
The immobility time (in seconds) is analyzed by ANOVA using Dunnett's test. The minimum effective dose (MED) is considered to be the lowest dose of test compound at which a statistically significant decrease in the immobility time is observed versus the vehicle control.

Data set [2] in a line: Dog oral bioavailability. Type of data set: in vivo. Particulars: plasma; fasted male beagle dog; IV 0.25 mg/kg, PO 1 mg/kg; Mean±SD, n=3; based on AUC0-24hr. As for the experimental part:
(§1) Cohorts of three or four 250-450 gram male Sprague-Dawley rats or approximately 10 kg Beagle dogs (female or male) are used. […] Dogs are administered i.v. by cannulated cephalic vein and blood collections are by jugular vein. Animals are first dosed at 0.25 mg/kg i.v. and blood samples (0.2 mL) are then collected using EDTA as an anticoagulant at 0.0830, 0.25, 0.50, 1, 2, 4, 8, 12, 24, 48, 72, 96, and 120 hours. Next after at least two days and after 18-24 hours fasting, the animals are dosed at 1.0 mg/kg by oral gavage. During the course of a study the total of blood (ml) collected is not to exceed 1% of total body weight in grams. Should larger blood volumes be required, the sampled blood volume is replace with heparinized whole blood from a donor animal. When using a cross-over study design, rats receive a volume of heparinized whole blood following the final sample of each study day approximately equal to that removed during study.
(§2) Compound plasma concentrations are measured by LC/MS/MS assays. Data are then analyzed using standard non-compartmental pharmacokinetic analysis. Oral bioavailability is calculated as: (AUC0-infinity,oral/AUC0-infinity,i.v.)×(Dose,i.v./Dose,oral)×100%

A short description of data set [3]: Rat oral bioavailability. Type of data set: in vivo. To be noted: Sprague-Dawley, plasma, fasted male SD rats, IV 0.25 mg/kg (20% MEOP/80% water), PO 1 mg/kg (1% NaCMC/0.5% SLS/0.05% antifoam), based on AUC0-∞. As for the experimental part: as §1, §2
The target of data set [4] is T1, rCB-1 (Rattus norvegicus, UniProt P20272).
T1 construct: purchased Applied Cell Sciences, Rockville, Md; host or cells: CHO cell membranes
As to the kind of experiment: rCB1-CHO antagonist mode SPA GTP-γ-35S binding assay. Type of data set: biochemical. Particulars: antagonist mode vs methanandamide; read-out: rCB-1 SPA GTPγS CHO Membrane Antagonist Kb. As for the experimental part:
(§3) Compounds of the present invention may be tested for functional activity at the CB-1 and CB-2 receptors in both agonist and antagonist modes using SPA (Scintillation Proximity Assay) based GTP-γ-^35S binding assays. All assay components are prepared in assay buffer (20 mM HEPES, 100 mM NaCl, 5 mM MgCl2, pH 7.4) at room temperature. Semi-log dilutions of test compound are prepared in assay buffer containing BSA (0.125% final conc.) for the agonist mode assays. For the antagonist mode assays, test compounds are prepared in the same manner but also include an 80% efficacious dose of a full agonist (methanandamide). GTP-γ^35S binding for the antagonist assay may be measured in a 96 well format using a modification of an antibody capture technique previously described. (DeLapp, N W, et al. (1999) J Pharmacol Exp Ther 289:946-955.) The CB-2 receptor agonist activity may be measured using a similar method using hCB2-Sf9 membranes. The CB-1 receptor agonist activity may be measured using a whole membrane capture technique using hCB1-CHO membranes. All incubations are done at room temperature.
(§4) hCB1-CHO or rCB1-CHO membranes (Applied Cell Sciences, Rockville, Md.) and GDP (1 μM final) are added to ice cold assay buffer and homogenized. […] Plates are then centrifuged at 700×g for 10 min. and the radioactivity counted.
(§5) Data are analyzed as follows: Background is subtracted from all wells. […] Percent antagonist inhibition is calculated by first normalizing the data to the signal generated by a saturating concentration of the full agonist (methanandamide). Then the data are analyzed using a 4-parameter logistic reduced fit (Activity Base™ and XLFit3™ from IDBS, Emeryville, Calif.). Kb values are determined using a modification of the Cheng-Prusoff relationship: Kb=IC50/(1+[agonist]/EC50), where “IC50” is determined from a four parameter fit of displacement curves, “[agonist]” is the agonist challenge concentration (nM), and “EC50” is determined from a four parameter fit of a full agonist concentration response curve (Cheng and Prusoff 1973). […]
On the technique in general: GTPγS resists hydrolysis and so accumulates on activated G proteins.

Data set [5] deals with T2, hCB-1 (Homo sapiens, UniProt P21554). Nature of the data set: hCB1-Sf9 antagonist mode SPA GTP-γ-35S binding assay. More on the design: purchased Applied Cell Sciences, Rockville, Md. It is filed as biochemical. Particulars: Sf9 membrane 22.7 μg; antagonist mode vs methanandamide; read-out: hCB-1 SPA GTPγS Sf9 Membrane 22.7 μg Antagonist Kb. As for the experimental part:
(§6) Compounds of the present invention may be tested for functional activity at the CB-1 and CB-2 receptors in both agonist and antagonist modes using SPA (Scintillation Proximity Assay) based GTP-γ-^35S binding assays. All assay components are prepared in assay buffer (20 mM HEPES, 100 mM NaCl, 5 mM MgCl2, pH 7.4) at room temperature. Semi-log dilutions of test compound are prepared in assay buffer containing BSA (0.125% final conc.) for the agonist mode assays. For the antagonist mode assays, test compounds are prepared in the same manner but also include an 80% efficacious dose of a full agonist (methanandamide). GTP-γ^35S binding for the antagonist assay may be measured in a 96 well format using a modification of an antibody capture technique previously described. (DeLapp, N W, et al. (1999) J Pharmacol Exp Ther 289:946-955.) The CB-2 receptor agonist activity may be measured using a similar method using hCB2-Sf9 membranes. The CB-1 receptor agonist activity may be measured using a whole membrane capture technique using hCB1-CHO membranes. All incubations are done at room temperature. […]
(§7) Data are analyzed as follows: Background is subtracted from all wells. […] Percent antagonist inhibition is calculated by first normalizing the data to the signal generated by a saturating concentration of the full agonist (methanandamide). Then the data are analyzed using a 4-parameter logistic reduced fit (Activity Base™ and XLFit3™ from IDBS, Emeryville, Calif.). Kb values are determined using a modification of the Cheng-Prusoff relationship: Kb=IC50/(1+[agonist]/EC50), where “IC50” is determined from a four parameter fit of displacement curves, “[agonist]” is the agonist challenge concentration (nM), and “EC50” is determined from a four parameter fit of a full agonist concentration response curve (Cheng and Prusoff 1973). Mean Kb values are calculated as a mean of at least three independent determinations±standard error of the mean (SEM). […]

Data set [6] addresses T3, hCB-2 (Homo sapiens, UniProt P34972).
T3 construct: purchased Perkin Elmer, Boston, Mass; host or cells: Sf9 cell membranes
As to the kind of experiment: hCB2-Sf9 antagonist mode SPA GTP-γ-35S binding assay. Type of data set: biochemical. To be noted: antagonist mode vs methanandamide; read-out: hCB-2 SPA GTPγS Sf9 Membrane Antagonist Kb. As for the experimental part:
as §6, §7

The target of data set [7] is T2, hCB-1. As to the kind of experiment: hCB1-CHO agonist mode SPA GTP-γ-35S binding assay. It is filed as biochemical. More on the design: purchased Applied Cell Sciences, Rockville, Md; host or cells: CHO cell membranes. Particulars: inverse agonism, read-out: hCB-1 SPA GTPγS CHO Membrane Agonist Relative EC50 inverse. As for the experimental part:
as §3
hCB1-CHO membrane, GDP (1 μM final conc.), and saponin (10 μg/mL final conc., Sigma, St Louis, Mo.) are combined and prepared on ice as for the antagonist assays, above. Diluted test compounds, GTP-γ-^35S ([…] final conc.) and membranes are combined in the assay plate and incubated for 30 min. Then 1 mg/well Wheatgerm Agglutinin SPA beads (GE Healthcare, Piscataway, N.J.) are added, plates are sealed and vortexed and incubate for 1 hr. before spinning and counting in the same fashion as for the antagonist assays, above.
Data are analyzed as follows: Background is subtracted from all wells. Percent agonist efficacy is determine by normalizing agonist/inverse agonist dose response data to the response obtained for a full agonist (methanandamide). Percent antagonist inhibition is calculated by first normalizing the data to the signal generated by a saturating concentration of the full agonist (methanandamide). Then the data are analyzed using a 4-parameter logistic reduced fit (Activity Base™ and XLFit3™ from IDBS, Emeryville, Calif.). Kb values are determined using a modification of the Cheng-Prusoff relationship: Kb=IC50/(1+[agonist]/EC50), where “IC50” is determined from a four parameter fit of displacement curves, “[agonist]” is the agonist challenge concentration (nM), and “EC50” is determined from a four parameter fit of a full agonist concentration response curve (Cheng and Prusoff 1973). Mean Kb values are calculated as a mean of at least three independent determinations±standard error of the mean (SEM). […]

For data set [8], the target named is T3, hCB-2. Nature of the data set: hCB2-Sf9 agonist mode SPA GTP-γ-35S binding assay. Type of data set: biochemical. To be noted: read-out: hCB-2 SPA GTPγS Sf9 Membrane Agonist Relative EC50. As for the experimental part: as §6
Data are analyzed as follows: Background is subtracted from all wells. […] Percent antagonist inhibition is calculated by first normalizing the data to the signal generated by a saturating concentration of the full agonist (methanandamide). […]

For data set [9], the target named is T2, hCB-1. Nature of the data set: hCB1-CHO antagonist mode SPA GTP-γ-35S binding assay. Type of data set: biochemical. More on the design: purchased Applied Cell Sciences, Rockville, Md; host or cells: CHO cell membranes. To be noted: antagonist mode vs methanandamide; read-out: hCB-1 SPA GTPγS CHO Membrane Antagonist Kb. As for the experimental part:
as §3, §4, §5

Where a name gives a salt, the structure may show the parent alone.

T2 sequence (P21554 whole entry): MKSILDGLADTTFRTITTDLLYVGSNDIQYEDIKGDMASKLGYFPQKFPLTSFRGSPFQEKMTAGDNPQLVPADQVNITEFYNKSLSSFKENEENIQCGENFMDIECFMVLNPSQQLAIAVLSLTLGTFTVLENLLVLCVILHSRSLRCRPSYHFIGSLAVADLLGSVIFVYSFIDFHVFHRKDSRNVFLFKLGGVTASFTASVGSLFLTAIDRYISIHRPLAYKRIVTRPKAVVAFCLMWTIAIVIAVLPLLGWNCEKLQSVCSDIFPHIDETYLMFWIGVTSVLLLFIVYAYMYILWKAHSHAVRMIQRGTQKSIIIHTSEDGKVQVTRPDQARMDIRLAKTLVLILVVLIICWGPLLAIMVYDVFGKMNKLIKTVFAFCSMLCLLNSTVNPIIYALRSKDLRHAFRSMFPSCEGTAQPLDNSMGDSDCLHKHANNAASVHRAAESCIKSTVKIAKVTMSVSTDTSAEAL
T3 sequence (P34972 whole entry): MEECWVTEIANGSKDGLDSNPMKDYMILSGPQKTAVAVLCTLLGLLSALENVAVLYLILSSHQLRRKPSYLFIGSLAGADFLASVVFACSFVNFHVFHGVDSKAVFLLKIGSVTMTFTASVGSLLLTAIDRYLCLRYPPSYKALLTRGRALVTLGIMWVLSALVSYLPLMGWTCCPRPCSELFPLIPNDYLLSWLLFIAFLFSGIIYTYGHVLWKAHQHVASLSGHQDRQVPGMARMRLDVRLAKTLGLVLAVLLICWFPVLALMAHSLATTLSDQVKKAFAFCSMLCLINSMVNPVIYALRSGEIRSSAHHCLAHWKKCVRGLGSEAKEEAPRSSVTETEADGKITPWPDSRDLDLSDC
T1 sequence (P20272 whole entry): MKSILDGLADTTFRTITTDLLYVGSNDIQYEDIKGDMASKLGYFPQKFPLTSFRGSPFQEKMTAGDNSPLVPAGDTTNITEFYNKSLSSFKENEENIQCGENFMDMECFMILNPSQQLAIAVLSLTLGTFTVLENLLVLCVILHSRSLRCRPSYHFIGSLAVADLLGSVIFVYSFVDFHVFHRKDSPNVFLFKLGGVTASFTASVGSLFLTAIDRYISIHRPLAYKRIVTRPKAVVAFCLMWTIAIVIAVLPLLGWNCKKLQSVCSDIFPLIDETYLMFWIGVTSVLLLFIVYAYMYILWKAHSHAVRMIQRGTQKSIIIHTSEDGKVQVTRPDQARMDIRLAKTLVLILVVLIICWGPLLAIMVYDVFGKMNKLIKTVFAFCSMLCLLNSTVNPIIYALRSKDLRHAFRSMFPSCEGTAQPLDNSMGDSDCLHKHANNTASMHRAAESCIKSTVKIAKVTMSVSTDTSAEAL

As for `CC(C)(N[C@@H]1C[C@H](c2cccc(OC(F)(F)F)c2)N(c2ccc(C#N)cc2)C1=O)c1cccc(C(F)(F)F)n1` [Example 27, 4-[(3R,5R)-3-[1-Methyl-1-(6-trifluoromethyl-pyridin-2-yl)-ethylamino]-2-oxo-5-(3-trifluoromethoxy-phenyl)-pyrrolidin-1-yl]-benzonitrile], the Seconds of immobility in data set [1] (1 mg/Kg p.o., mice) amounted to 170 s; in data set [1] (3 mg/Kg p.o., mice) it was 128 s; in data set [1] (10 mg/Kg p.o., mice) it was 80 s. In addition, the figures for the “Dunett's Test (0.05) * against vehicle, # against Imipramine” value in data set [1] (1 mg/Kg), in [1] (3 mg/Kg) and in data set [1] (10 mg/Kg) were “#”, “*” and “*”, respectively. Further, the “duration of immobility in forced swim test” value in [1] (mice, p.o., result in words) is on record as “significantly reduce the duration of mobility in a dose dependent manner”.
`CN(C)CCCN1c2ccccc2CCc2ccccc21` [Imipramine, reference compound]: the “Dunett's Test (0.05) * against vehicle, # against Imipramine” value in data set [1] (15 mg/Kg) is on record as “*”. In data set [1] (15 mg/Kg, mice), the Seconds of immobility is 80 s.
For `CC(C)(N[C@@H]1C[C@H](c2cccc(OC(F)(F)F)c2)N(c2ccc(C#N)cc2)C1=O)c1cccc(C(F)(F)F)n1` [Example 27HCl Salt, 4-[(3R,5R)-3-[1-methyl-1-(6-trifluoromethyl-pyridin-2-yl)-ethylamino]-2-oxo-5-(3-trifluoromethoxy-phenyl)-pyrrolidin-1-yl]-benzonitrile hydrochloride], the values for the bioavailability in data set [2] and in [3] were 33 ± 13% and 58 ± 8.6%, respectively.
Regarding `CC(C)(N[C@@H]1C[C@H](c2cccc(OC(F)(F)F)c2)N(c2ccc(C(F)(F)F)cc2)C1=O)c1cccc(C(F)(F)F)n1` [Example 11, (3R,5R)-3-[1-Methyl-1-(6-trifluoromethyl-pyridin-2-yl)-ethylamino]-5-(3-trifluoromethoxy-phenyl)-1-(4-trifluoromethyl-phenyl)-pyrrolidin-2-one], in data set [1] (mice, p.o.), the “minimum effective dose (MED) in forced swim test” value came out at 3 mg/kg.
On to `CC(C)(N[C@@H]1C[C@H](c2cccc(C(F)(F)F)c2)N(c2ccc(OC(F)(F)F)cc2)C1=O)c1cccc(C(F)(F)F)n1` [Example 28, (3R,5R)-3-[1-Methyl-1-(6-trifluoromethyl-pyridin-2-yl)-ethylamino]-5-(3-trifluoromethyl-phenyl)-1-(4-trifluoromethoxy-phenyl)-pyrrolidin-2-one], for which the antagonist equilibrium constant (Kb) in data set [4] was 0.756 nM; in data set [5], 1.76 nM; in data set [6], greater than 11900 nM; in data set [9] it was 2.37 nM. Moreover, the EC50 in data set [7] is 3.02 nM; in data set [8], greater than 100000 nM. In [1] (mice, p.o.), the “minimum effective dose (MED) in forced swim test” value came to 10 mg/kg.

As usually defined, the bioavailability is dose-corrected exposure relative to a reference, in per cent. As a reminder, the Kb is the equilibrium dissociation constant of an antagonist, usually derived from a functional assay. The term EC50 denotes the concentration giving half of the maximal effect.

These data come from patent US8426448B2, “1,5-diphenyl-pyrrolidin-2-one compounds as CB-1 ligands” (Eli Lilly and Company, priority 2008, dated 2013).
